Laboratory results as given in paper PMC12668308, “A Novel Antimalarial Agent that Inhibits Protein Synthesis in Plasmodium falciparum” (Angewandte Chemie (International Ed. in English), 2025).
Like-named read-outs stand apart in the source and are kept apart here.

Columns and labels:
Format in all cases: cell-based, Plasmodium falciparum
[1] = tested on: P. falciparum NF54 strain; assay: [3H]-hypoxanthine incorporation assay, asexual blood stage
Procedure, shortened: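 Parasites in human RBC were exposed to a 6-step twofold compound dilution in hypoxanthine-free medium (final parasitemia 0.3%, haematocrit 1.25%) at 37 °C under 3% O2/4% CO2. After 48 h, [3H]-hypoxanthine (0.25 µCi/well) was added for 24 h and uptake measured by scintillation counting. IC50 came from four-parameter curve fitting.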

[2] = tested on: mRNA translation in NF54 trophozoite-stage parasites; assay: Surface sensing of translation (SUnSET) assay; settings: trophozoites 30–35 hpi; 31 at 3x, 50x, 100x IC50; 34 and pyrimethamine at 3x IC50
Method: To confirm the role of 31 as a translation inhibitor, the surface sensing of translation (SUnSET) assay was employed. This involves incubating the culture with a translation inhibitor, puromycin, a structural analogue of aminoacyl tRNA. Puromycin is incorporated in the nascent polypeptide chain and prevents further elongation. When puromcyin is used in sub‐lethal concentrations, incorporation of puromycin in neosynthesized protein correlates with the levels of mRNA translation (Figure 3c, lane2).^[ [27] ^] […] This trend was further confirmed by the quantified western blot signals (Figures 3d and S4C) that are consistent with the iSPP profiling results.
SUnSET: The SUnSET assay was done as described in. ^[27^]Tightly synchronized NF54 wild type parasites were treated with the compounds for 4h at 30-35 hpi (trophozoite stage). The following compounds and amounts used were: cycloheximide (3xIC50, 1,2 µM; Calbiochem), pyrimethamine (3xIC50, 21 nM; MedChemExpress), 34 (3xIC50, 12 µM), and 31 (3xIC50, 12 nM; 50xIC50, 200 nM; 100xIC50, 400 nM). Parasites were incubated with 1 µg mL^-1 (Sigma P8833) for 1 h at 37 °C and saponin lysis was performed.
Saponin lysis and Western blot: Saponin lysis was done on infected RBC at ~5% parasitemia to lyse erythrocytes. Parasite cultures were centrifuged at 1,200 g for 5 min at room temperature. Once the supernatant was discarded, 10 volumes of ice-cold 0.1% (w/v) saponin (Calbiochem 558255, dissolved in PBS, and filtered with 0,22) was added, incubated on ice for 10 min and centrifuged for 2,272 g for 15 min at 4 °C. […] The membrane was washed 3 times in PBS-T (3 min incubation in each washing step) and the signal was detected using the chemiluminescent substrate SuperSignal West Pico Plus (Thermo Scientific, REF 34580) and the imaging system Vilber Fusion FX7 Edge 17.10 SN. Quantification of Western blot signal was done by measuring the integrated density of each lane using ImageJ analysis software (version 1.54p). […]

[3] = tested on: Dd2b2^pfmdr1 G182S; settings: Dd2b2^pfmdr1 G182S vs Dd2b2^WT
Method: ^[a] 72-h [^3H] hypoxanthhine incorporation assay; Data is expressed as mean±s.d. The assay was performed in three independent biological experiments, each in biological duplicates
P. falciparum asexual blood stage parasites were cultured in human red blood cells (RBC, Blutspende SRK, Zurich) at a hematocrit of 5% in RPMI 1640 medium. The RPMI 1640 medium (ThermoFisher Scientific #51800−043) was supplemented with the following: 24 mM NaHCO3 (pH 7.3, Sigma-Aldrich #31437−500G-R), 25 mM Hepes (Sigma-Aldrich #H4034−500G), 0.36 mM hypoxanthine (Sigma-Aldrich # H9377−25G), 100 µg mL^-1 neomycin (Sigma-Aldrich #N6386−100G) and 0.5% Albumax II (Thermo Fisher #11021−045). Additionally, 2 mM choline chloride (279 mg/L, Sigma-Aldrich #C7527−100G) was added to the culture to block the induction of sexual commitment as described. ^[31^] The RPMI 1640 medium and components were dissolved in water (Milli-Q purified), stirred for at least 3 h, and then sterile filtered (0.22 μm pore size) with a bottle top filter (Corning # 431118). Parasite cultures were maintained in an atmosphere of 3% O2, 4% CO2, and 93% N2 in air-tight chambers at 37 °C. The [^3H]-hypoxanthine incorporation assay was used to test compound activity in the specific parasite lines as described.^[32^] Briefly, compounds were dissolved in DMSO (10 mM) and diluted in a hypoxanthine-free culture medium. A limiting dilution was performed over a 64-fold range (6-step twofold dilution) in a 96-well plate in duplicates. For every starting concentration, a limiting dilution was performed over a 64-fold range (6-step twofold dilution) in a 96-well plate in two biological duplicates. Parasites were added at 100 µL to each well containing the compound to obtain a final parasitemia of 0.3% and haematocrit of 1.25%. The plates were incubated for 48 h before 0.25 µCi of [^3H]-hypoxanthine was added per well for an additional 24 h. Parasites were harvested on a glass-fiber filter with a Microbeta FilterMate cell harvester (Perkin Elmer, Waltham, USA) and radioactivity was counted using a MicroBeta2 liquid scintillation counter (Perkin Elmer, Waltham, US). […] The fifty percent inhibitory concentration (IC50) was calculated by using nonlinear, four parameter (variable slope) curve fitting as described ^[33^] after importing into GraphPad Prism (version 8.3.0).

[4] = Plasmodium falciparum, NF54, asexual blood stage, mean ± s.d., read-out: PfNF54 IC50 ± s.d.

| Compound | fold lower activity (control compound vs 31) ([1]; PfNF54 IC50) [fold] | IC50 [1, 4] [nM] | mRNA translation (puromycin incorporation) [2] | IC50 ratio relative to NF54 strain ([1]; NF54) | IC50 ([1]; Plasmodium falciparum, NF54, 72 h, Table S2, NF54 sensitive strain, 72-h assay, mean±s.d., read-out: IC50) [nM] | IC50 ([1]; asexual blood stage, mean ± s.d., read-out: PfNF54 IC50 ± s.d.) [nM] | IC50 fold shift relative to parental clone [3] |
| --- | --- | --- | --- | --- | --- | --- | --- |
| O=C(Nc1cc(CN2CCOCC2)ccc1F)c1cccc(Oc2cc(C(F)(F)F)ccn2)c1 [Compound 34, N-(2-Fluoro-5-(morpholinomethyl)phenyl)-3-((4-(trifluoromethyl)pyridin-2-yl)oxy)benzamide] | 1000 | 3730 | did not reduce mRNA translation |  |  |  |  |
| CN1CCN(Cc2ccc(O)c(NC(=O)c3cccc(Oc4cc(C(F)(F)F)ccn4)c3)c2)CC1 [Compound 31, N-(2-hydroxy-5-((4-methylpiperazin-1-yl)methyl)phenyl)-3-((4-(trifluoromethyl)pyridin-2-yl)oxy)benzamide] |  | < 5 | concentration‐dependent reduction in translation | 1.00 | 1.8 ± 0.3 | 3.9 | 35.7 |
